{
  "source": "paper PMC6627331",
  "about": "“Identification of Small Molecule Inhibitors of Staphylococcus aureus RnpA” (Antibiotics, 2019)",
  "key": {"S. aureus RnpA": {"molecular_target": "T1, S. aureus RnpA (Staphylococcus aureus, UniProt P0A0H5)", "T1 construct": "hexahistidine (His6) (N); made in house; host or cells: E. coli BL21 (DE3), plasmid pEXP5-nt", "T1 sequence (P0A0H5 1-117)": "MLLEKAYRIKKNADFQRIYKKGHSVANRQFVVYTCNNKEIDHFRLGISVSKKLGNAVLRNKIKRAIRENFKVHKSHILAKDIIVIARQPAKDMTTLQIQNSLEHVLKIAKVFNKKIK", "assay": "RnpA-mediated in vitro spa mRNA degradation assay", "format": "biochemical", "details": "read-out: Degradation IC50", "protocol": "RnpA-mediated RNA degradation assays were performed as previously described. Briefly, 1 pmol of spa mRNA was incubated with 5 pmol RnpA at 37 °C for 30 min in reaction buffer (50 mM Tris-HCl pH 8.0, 2 mM NaCl, 2 mM MgCl2) in the absence or presence of the indicated compound (≤500 µM). The inhibitory effects of the test compounds were calculated using Biorad ImageLab densitometry software to measure the signal intensity of the spa band in the negative control (spa alone), positive control (RnpA + spa + DMSO), and experimental samples (RnpA + spa + test compound) separated on a 1.2% formaldehyde-agarose gel. Background signal from the positive control sample sometimes resulted due to incomplete degradation of transcripts. Thus, the signal intensity of the positive control was taken into account when calculating the percent inhibition. The raw signals from the positive (+RnpA) and negative (-RnpA) controls were converted into percentage, by normalizing the positive control (+RnpA) signal to 0% RnpA inhibition and the negative control (-RnpA) to 100% RnpA inhibition. Similarly, the raw signals from the test compounds were reported as percent RnpA inhibition using the following equation: [(experimental−positive control)/(negative control−positive control)] × 100. […] To assess IC50, % RnpA degradation inhibition was plotted against compound concentration; a linear best fit equation was generated and utilized to calculate the IC50."}, "[1]": {"molecular_target": "T2, S. aureus RNase P (RnpA + rnpB) (Staphylococcus aureus, UniProt P0A0H5)", "T2 construct": "hexahistidine (His6) (N); made in house; host or cells: E. coli BL21 (DE3), plasmid pEXP5-nt", "T2 sequence (P0A0H5 1-117)": "T1 sequence (P0A0H5 1-117)", "assay": "RnpA-dependent RNase P in vitro ptRNA^Tyr processing assay", "format": "biochemical", "details": "in vitro ptRNA^Tyr processing; read-out: Processing IC50", "protocol": "S. aureus RNase P activity assays were performed according to conditions described previously. Briefly, ptRNA^Tyr and rnpB RNA species were first denatured by heating to 95 °C for 5 min then slow cooled to room temperature. RNase P was reconstituted by mixing an equal molar ratio of rnpB and RnpA for 15 min at 37 °C. Precursor tRNA processing inhibition reactions were performed by mixing 1.25 pmol of reconstituted RNase P (RnpA + rnpB) with an equal volume of 2× low salt buffer (50 mM Tris-HCl pH 8.0, 5 mM MgCl2) in the presence of DMSO (negative control) or the indicated compound (≤500 µM) and incubated for 5 min at 37 °C. 5 pmol ptRNA^Tyr was added and the mixture was incubated at 37 °C 15 min. Reactions were stopped by adding 2× RNA loading dye and heating at 65 °C for 10 min. Each sample was electrophoresed in a 7 M urea/8% polyacrylamide gel then stained with ethidium bromide. The Biorad EZ Gel Doc imaging system was used to visualize the RNA and relative abundance of the mature tRNA^Tyr band (% processing) in the negative control or in samples containing the indicated compounds and analyzed using Biorad Image Lab densitometry software. The inhibitory activity of the indicated compounds were calculated as a % inhibition using the following equation: […].\nTo assess IC50, % RNase P processing inhibition was plotted against compound concentration and a linear best fit equation was generated to calculate the IC50."}, "[2]": {"assay": "JC2 stability (degradation test) in Mueller Hinton broth by HPLC", "format": "physicochemical", "details": "37 °C, read-out: half-life in Mueller Hinton media (MH t1/2) (converted)", "protocol": "Degradation test: Blank sample was prepared with 20 µL Mueller Hinton broth (BD biosciences, US) diluted in 180 µL of 2 % DMSO in 1:1 (v/v) acetonitrile : water solution, and directly submitted to HPLC for evaluation. A 5 mM JC2 stock solution was prepared by diluting the 25 mM stock solution with DMSO. 4 µL of 5 mM […] solution was added into 196 µL of MH, and incubated at 37 °C for the whole course of evaluation. 20 µL of each incubated sample was taken at 0, 0.5, 1, 2, 4, 8, 16 hr, and were prepared in the same manner as the blank sample before submitting to HPLC.\nChromatography was performed on an Agilent 1200 series HPLC system that equipped with a vacuum degasser, a quaternary pump, a diode array and multiple wavelength detector SL, and a standard and preparative autosampler (Agilent Technologies, US). A Hyspersil GOLD^TM C-18 4.6 x 250 mm, 3 µm column was used for separation. A gradient elution method was used as the mobile phase by mixing solvent A (water, 0.1% formic Acid) and solvent B (acetonitrile, 0.1% formic acid). The time program for gradient elution is shown in Table A. The flow rate was set at 1.0 ml/min, and 20µl of sample was injected each time. The detector monitored absorption at 254, 215, 280 nm.\nChemstation Offline (Agilent Technologies, US) was used to analyze the data. […]"}},
  "data": [
    {"smiles": "CC1CCCCN1C(=O)Nc1cc(Cl)cc(Cl)c1", "note": "(stereo not drawn) [JC2]", "values": [
      {"measurement": "IC50", "setting": "S. aureus RnpA", "value": 180, "unit": "µM"},
      {"measurement": "IC50", "setting": "[1]", "value": 200, "unit": "µM"},
      {"measurement": "half-life at 100 µM", "setting": "[2]", "value": "~2", "unit": "h"}
    ]}
  ]
}
